The values below come from article PMC5460189, “Melon13-lipoxygenase CmLOX18 may be involved in C6 volatiles biosynthesis in fruit” (Scientific Reports, 2017).

This test concerns T1, CmLOX18.
T1 construct: ORF in pYES2.1 TOPO-TA, His-tagged (anti-His), expressed in Saccharomyces cerevisiae INVSc1, purified
The test can be described thus: increase in A234, Michaelis-Menten plot. In kind it is biochemical, Cucumis melo. The settings on record: substrate 15-350 μM, pH and temperature of the kinetic runs not stated (optimum pH 4.5, 30 °C).

For orientation: Km means the concentration of substrate that gives half-maximal velocity. Consider `CCCCC/C=C\C/C=C\CCCCCCCC(=O)O` [Linoleic acid], for which the Michaelis constant (Km) was found to be 127 ± 18.6 µM.
Regarding `CC/C=C\C/C=C\C/C=C\CCCCCCCC(=O)O` [Linolenic acid], the Michaelis constant (Km) (linolenic acid isomer not given, alpha assumed) was determined as 40.7 ± 2.65 µM.
